Reference: patent US8952024B2, “Herbicidal pyrimidone derivatives” (E I du Pont de Nemours and Company, priority 2009, dated 2015)

Legend:
Assay in all cases: Test B pre-/postemergence plant response
Assay type in all cases: in vivo
[1] = tested on: downy bromegrass (Bromus tectorum)
How it was run: (§1)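 Visual injury, 0–100 scale (100 = complete control), rated against controls after 13 to 15 days in greenhouse. Pre-emergence: seeds in loam/sand soil, treated at planting. Post-emergence: 1- to 4-leaf plants (2 to 18 cm) in peat/vermiculite medium. Compounds formulated in non-phytotoxic solvent with surfactant.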

[2] = tested on: giant foxtail (Setaria faberii)
How it was run: as §1

[3] = tested on: goosegrass (Eleusine indica)
How it was run: as §1

[4] = tested on: green foxtail (Setaria viridis)
How it was run: as §1

[5] = tested on: johnsongrass (Sorghum halepense)
How it was run: as §1

kochia (Kochia scoparia) = tested on: kochia (Kochia scoparia)
How it was run: as §1

[6] = tested on: lambsquarters (Chenopodium album)
How it was run: as §1

[7] = tested on: large crabgrass (Digitaria sanguinalis)
How it was run: as §1

[8] = tested on: pigweed (Amaranthus retroflexus)
How it was run: as §1

[9] = tested on: velvetleaf (Abutilon theophrasti)
How it was run: as §1

[10] = tested on: wheat (Triticum aestivum)
How it was run: as §1

[11] = tested on: woolly cupgrass (Eriochloa villosa)
How it was run: as §1

[12] = tested on: yellow nutsedge (Cyperus esculentus)
How it was run: as §1

[13] = 31 g ai/ha, postemergence, scale 0 to 100, 0 is no effect, 100 is complete control
[14] = 250 g ai/ha, Preemergence, 0 to 100 scale
[15] = Postemergence, 62 g ai/ha, scale 0 (no effect) to 100 (complete control), 13 to 15 days
[16] = Postemergence, 125 g ai/ha, visual rating after 13 to 15 days, scale 0 (no effect) to 100 (complete control)
[17] = Postemergence, 250 g ai/ha, scale 0 to 100 (0 no effect, 100 complete control)
[18] = Preemergence, 31 g ai/ha, scale 0 to 100 (0 no effect, 100 complete control)
[19] = Preemergence, 62 g ai/ha, scale 0 to 100 (0 no effect, 100 complete control)
[20] = Preemergence, 125 g ai/ha, scale 0 to 100, 0 no effect, 100 complete control

Compound: Cn1c(-c2ccccc2)ncc(C(=O)C2=C(O)CCCC2=O)c1=O [Compound 55]
- Plant response rating, Bromegrass, Downy [1, 13]: 0
- Plant response rating, Bromegrass, Downy [1, 14]: 0
- Plant response rating, Bromegrass, Downy [1, 15]: 0
- Plant response rating, Bromegrass, Downy [1, 16]: 0
- Plant response rating, Bromegrass, Downy [1, 17]: 0
- Plant response rating, Bromegrass, Downy [1, 18]: 0
- Plant response rating, Bromegrass, Downy [1, 19]: 0
- Plant response rating, Bromegrass, Downy [1, 20]: 0
- Plant response rating, Foxtail, Giant [2, 13]: 25
- Plant response rating, Foxtail, Giant [2, 14]: 10
- Plant response rating, Foxtail, Giant [2, 15]: 30
- Plant response rating, Foxtail, Giant [2, 16]: 55
- Plant response rating, Foxtail, Giant [2, 17]: 75
- Plant response rating, Foxtail, Giant [2, 18]: 0
- Plant response rating, Foxtail, Giant [2, 19]: 0
- Plant response rating, Foxtail, Giant [2, 20]: 0
- Plant response rating, Goosegrass [3, 13]: 45
- Plant response rating, Goosegrass [3, 14]: 98
- Plant response rating, Goosegrass [3, 15]: 60
- Plant response rating, Goosegrass [3, 16]: 65
- Plant response rating, Goosegrass [3, 17]: 75
- Plant response rating, Goosegrass [3, 18]: 45
- Plant response rating, Goosegrass [3, 19]: 95
- Plant response rating, Goosegrass [3, 20]: 98
- Plant response rating, Foxtail, Green [4, 13]: 30
- Plant response rating, Foxtail, Green [4, 14]: 0
- Plant response rating, Foxtail, Green [4, 15]: 40
- Plant response rating, Foxtail, Green [4, 16]: 80
- Plant response rating, Foxtail, Green [4, 17]: 80
- Plant response rating, Foxtail, Green [4, 18]: 0
- Plant response rating, Foxtail, Green [4, 19]: 0
- Plant response rating, Foxtail, Green [4, 20]: 0
- Plant response rating, Johnsongrass [5, 13]: 0
- Plant response rating, Johnsongrass [5, 14]: 0
- Plant response rating, Johnsongrass [5, 15]: 0
- Plant response rating, Johnsongrass [5, 16]: 10
- Plant response rating, Johnsongrass [5, 17]: 20
- Plant response rating, Johnsongrass [5, 18]: 0
- Plant response rating, Johnsongrass [5, 19]: 0
- Plant response rating, Johnsongrass [5, 20]: 0
- Plant response rating, Kochia (kochia (Kochia scoparia); [13]): 20
- Plant response rating, Kochia (kochia (Kochia scoparia); [15]): 65
- Plant response rating, Kochia (kochia (Kochia scoparia); [16]): 75
- Plant response rating, Kochia (kochia (Kochia scoparia); [17]): 85
- Plant response rating, Lambsquarters [6, 13]: 80
- Plant response rating, Lambsquarters [6, 14]: 100
- Plant response rating, Lambsquarters [6, 15]: 80
- Plant response rating, Lambsquarters [6, 16]: 95
- Plant response rating, Lambsquarters [6, 17]: 98
- Plant response rating, Lambsquarters [6, 18]: 95
- Plant response rating, Lambsquarters [6, 19]: 98
- Plant response rating, Lambsquarters [6, 20]: 98
- Plant response rating, Crabgrass, Large [7, 13]: 60
- Plant response rating, Crabgrass, Large [7, 14]: 98
- Plant response rating, Crabgrass, Large [7, 15]: 75
- Plant response rating, Crabgrass, Large [7, 16]: 80
- Plant response rating, Crabgrass, Large [7, 17]: 85
- Plant response rating, Crabgrass, Large [7, 18]: 10
- Plant response rating, Crabgrass, Large [7, 19]: 60
- Plant response rating, Crabgrass, Large [7, 20]: 95
- Plant response rating, Pigweed [8, 13]: 80
- Plant response rating, Pigweed [8, 15]: 85
- Plant response rating, Pigweed [8, 16]: 90
- Plant response rating, Pigweed [8, 17]: 95
- Plant response rating, Pigweed [8, 18]: 45
- Plant response rating, Pigweed [8, 19]: 95
- Plant response rating, Pigweed [8, 20]: 98
- Plant response rating, Velvetleaf [9, 13]: 90
- Plant response rating, Velvetleaf [9, 15]: 98
- Plant response rating, Velvetleaf [9, 16]: 98
- Plant response rating, Velvetleaf [9, 17]: 100
- Plant response rating, Velvetleaf [9, 18]: 75
- Plant response rating, Velvetleaf [9, 19]: 98
- Plant response rating, Velvetleaf [9, 20]: 100
- Plant response rating, Wheat [10, 13]: 0
- Plant response rating, Wheat [10, 15]: 0
- Plant response rating, Wheat [10, 16]: 5
- Plant response rating, Wheat [10, 17]: 10
- Plant response rating, Wheat [10, 18]: 0
- Plant response rating, Wheat [10, 19]: 0
- Plant response rating, Wheat [10, 20]: 0
- Plant response rating, Cupgrass, Woolly [11, 13]: 10
- Plant response rating, Cupgrass, Woolly [11, 14]: 55
- Plant response rating, Cupgrass, Woolly [11, 15]: 10
- Plant response rating, Cupgrass, Woolly [11, 16]: 15
- Plant response rating, Cupgrass, Woolly [11, 17]: 20
- Plant response rating, Cupgrass, Woolly [11, 18]: 0
- Plant response rating, Cupgrass, Woolly [11, 19]: 0
- Plant response rating, Cupgrass, Woolly [11, 20]: 0
- Plant response rating, Nutsedge, Yellow [12, 13]: 10
- Plant response rating, Nutsedge, Yellow [12, 15]: 10
- Plant response rating, Nutsedge, Yellow [12, 16]: 55
- Plant response rating, Nutsedge, Yellow [12, 17]: 65
- Plant response rating, Nutsedge, Yellow [12, 18]: 0
- Plant response rating, Nutsedge, Yellow [12, 19]: 45
- Plant response rating, Nutsedge, Yellow [12, 20]: 45

Compound: O=C1CCCC(O)=C1C(=O)c1cnc(-c2ccsc2)n(-c2ccccc2)c1=O [Compound 56]
- Plant response rating, Bromegrass, Downy [1, 13]: 35
- Plant response rating, Bromegrass, Downy [1, 14]: 5
- Plant response rating, Bromegrass, Downy [1, 15]: 45
- Plant response rating, Bromegrass, Downy [1, 16]: 50
- Plant response rating, Bromegrass, Downy [1, 17]: 60
- Plant response rating, Bromegrass, Downy [1, 18]: 0
- Plant response rating, Bromegrass, Downy [1, 19]: 0
- Plant response rating, Bromegrass, Downy [1, 20]: 0
- Plant response rating, Foxtail, Giant [2, 13]: 75
- Plant response rating, Foxtail, Giant [2, 14]: 80
- Plant response rating, Foxtail, Giant [2, 15]: 80
- Plant response rating, Foxtail, Giant [2, 16]: 85
- Plant response rating, Foxtail, Giant [2, 17]: 95
- Plant response rating, Foxtail, Giant [2, 18]: 0
- Plant response rating, Foxtail, Giant [2, 19]: 40
- Plant response rating, Foxtail, Giant [2, 20]: 75
- Plant response rating, Goosegrass [3, 13]: 65
- Plant response rating, Goosegrass [3, 14]: 100
- Plant response rating, Goosegrass [3, 15]: 75
- Plant response rating, Goosegrass [3, 16]: 75
- Plant response rating, Goosegrass [3, 17]: 90
- Plant response rating, Goosegrass [3, 18]: 90
- Plant response rating, Goosegrass [3, 19]: 95
- Plant response rating, Goosegrass [3, 20]: 95
- Plant response rating, Foxtail, Green [4, 13]: 80
- Plant response rating, Foxtail, Green [4, 14]: 100
- Plant response rating, Foxtail, Green [4, 15]: 85
- Plant response rating, Foxtail, Green [4, 16]: 98
- Plant response rating, Foxtail, Green [4, 17]: 100
- Plant response rating, Foxtail, Green [4, 18]: 0
- Plant response rating, Foxtail, Green [4, 19]: 20
- Plant response rating, Foxtail, Green [4, 20]: 20
- Plant response rating, Johnsongrass [5, 13]: 55
- Plant response rating, Johnsongrass [5, 14]: 80
- Plant response rating, Johnsongrass [5, 15]: 80
- Plant response rating, Johnsongrass [5, 16]: 85
- Plant response rating, Johnsongrass [5, 17]: 100
- Plant response rating, Johnsongrass [5, 18]: 10
- Plant response rating, Johnsongrass [5, 19]: 45
- Plant response rating, Johnsongrass [5, 20]: 55
- Plant response rating, Kochia (kochia (Kochia scoparia); [13]): 90
- Plant response rating, Kochia (kochia (Kochia scoparia); [15]): 95
- Plant response rating, Kochia (kochia (Kochia scoparia); [16]): 100
- Plant response rating, Kochia (kochia (Kochia scoparia); [17]): 100
- Plant response rating, Lambsquarters [6, 13]: 98
- Plant response rating, Lambsquarters [6, 14]: 98
- Plant response rating, Lambsquarters [6, 15]: 98
- Plant response rating, Lambsquarters [6, 16]: 100
- Plant response rating, Lambsquarters [6, 17]: 100
- Plant response rating, Lambsquarters [6, 18]: 95
- Plant response rating, Lambsquarters [6, 19]: 98
- Plant response rating, Lambsquarters [6, 20]: 98
- Plant response rating, Crabgrass, Large [7, 13]: 75
- Plant response rating, Crabgrass, Large [7, 14]: 98
- Plant response rating, Crabgrass, Large [7, 15]: 85
- Plant response rating, Crabgrass, Large [7, 16]: 90
- Plant response rating, Crabgrass, Large [7, 17]: 95
- Plant response rating, Crabgrass, Large [7, 18]: 80
- Plant response rating, Crabgrass, Large [7, 19]: 85
- Plant response rating, Crabgrass, Large [7, 20]: 98
- Plant response rating, Pigweed [8, 13]: 98
- Plant response rating, Pigweed [8, 15]: 98
- Plant response rating, Pigweed [8, 16]: 100
- Plant response rating, Pigweed [8, 17]: 100
- Plant response rating, Pigweed [8, 18]: 98
- Plant response rating, Pigweed [8, 19]: 100
- Plant response rating, Pigweed [8, 20]: 100
- Plant response rating, Velvetleaf [9, 13]: 85
- Plant response rating, Velvetleaf [9, 15]: 90
- Plant response rating, Velvetleaf [9, 16]: 98
- Plant response rating, Velvetleaf [9, 17]: 98
- Plant response rating, Velvetleaf [9, 18]: 85
- Plant response rating, Velvetleaf [9, 19]: 90
- Plant response rating, Velvetleaf [9, 20]: 98
- Plant response rating, Wheat [10, 13]: 0
- Plant response rating, Wheat [10, 15]: 0
- Plant response rating, Wheat [10, 16]: 0
- Plant response rating, Wheat [10, 17]: 0
- Plant response rating, Wheat [10, 18]: 0
- Plant response rating, Wheat [10, 19]: 0
- Plant response rating, Wheat [10, 20]: 0
- Plant response rating, Cupgrass, Woolly [11, 13]: 15
- Plant response rating, Cupgrass, Woolly [11, 14]: 70
- Plant response rating, Cupgrass, Woolly [11, 15]: 45
- Plant response rating, Cupgrass, Woolly [11, 16]: 65
- Plant response rating, Cupgrass, Woolly [11, 17]: 85
- Plant response rating, Cupgrass, Woolly [11, 18]: 0
- Plant response rating, Cupgrass, Woolly [11, 19]: 20
- Plant response rating, Cupgrass, Woolly [11, 20]: 50
- Plant response rating, Nutsedge, Yellow [12, 13]: 20
- Plant response rating, Nutsedge, Yellow [12, 15]: 70
- Plant response rating, Nutsedge, Yellow [12, 16]: 75
- Plant response rating, Nutsedge, Yellow [12, 17]: 75
- Plant response rating, Nutsedge, Yellow [12, 18]: 20
- Plant response rating, Nutsedge, Yellow [12, 19]: 80
- Plant response rating, Nutsedge, Yellow [12, 20]: 85
